US20240279176A1, “SUBSTITUTED TRICYCLIC HETEROCYCLIC COMPOUNDS AS METALLO-BETA-LACTAMASE INHIBITORS” (priority 2021, published 2024)
Where two headings read alike, the source gives them in different places.

Legend:
[1] = system: Klebsiella pneumoniae ATCC BAA-2146; test: Checkerboard synergy assay in combination with Imipenem; assay type: cell-based; conditions: K. pneumoniae ATCC BAA-2146; for Fold reduction in Imipenem MIC in the presence of compounds (μg/mL) 4: compound at 4 μg/mL; for Fold reduction in Imipenem MIC in the presence of compounds (μg/mL) 8: compound at 8 μg/mL; for Fold reduction in Imipenem MIC in the presence of compounds (μg/mL) 16: compound at 16 μg/mL; for Fold reduction in Imipenem MIC in the presence of compounds (μg/mL) 32: compound at 32 μg/mL
Source text: (§1) The strain included in the study was Klebsiella pneumoniae ATCC BAA-2146 (Himedia®, India) with presence of New Delhi metallo-β-lactamase (NDM-1) gene. The quality control reference strains Escherichia coli ATCC 25922 and Pseudomonas aeruginosa ATCC 27853 were procured from Himedia®, India.
(§2) The fold modulation activity of test compounds, in combination with Imipenem or Meropenem, was checked against Klebsiella pneumoniae ATCC BAA-2146 strain by the broth-microdilution checkerboard synergy assay. The plates contained 5×10^5 CFU/mL bacterial inocula and 2-fold serial dilutions of the antibiotics (128-2 μg/mL) as well as test compounds (32-4 μg/mL) in a total volume of 200 μL of CA-MHB. Dimethyl sulfoxide (DMSO, ≤2.5%) was included as vehicle control. Following 16-18 h of incubation at 37° C., the MICs of antibiotics as well as drug combinations were visually inspected.

[2] = system: Klebsiella pneumoniae ATCC BAA-2146; test: Minimum inhibitory concentration (MIC), broth-microdilution (CLSI); assay type: cell-based
Source text: as §1
MIC values were identified through broth-microdilution in sterilized 96-well polystyrene flat-bottom microtitre plates (Cole-Parmer®) according to the guideline of the Clinical and Laboratory Standards Institute (CLSI) (CLSI; Methods for dilution antimicrobial susceptibility tests for bacteria that grow aerobically; Clinical Laboratory Standards Institute, M07-A09, 2012). This method involves the use of BBL™ Cation-adjusted Mueller-Hinton II Broth (CA-MHB; BD) and the strain (Klebsiella pneumoniae ATCC BAA-2146) concentration was adjusted to 5×10^5 CFU/mL. After 16-18 h of incubation at various concentrations of Imipenem, Meropenem (Alfa Aesar), or test compounds at 37° C., MIC was defined as the lowest concentration of antibiotic or test compound with no visible growth.

[3] = target: NDM-1 (Klebsiella pneumoniae, UniProt C7C422); test: Enzyme activity: IC50 in fluorescence assay with cephalosporin substrate FC5; assay type: biochemical; conditions: 50 pM NDM-1, 1.5 μM FC5, 10 min pre-incubation
Chain of NDM-1 (C7C422 29-270, looked up): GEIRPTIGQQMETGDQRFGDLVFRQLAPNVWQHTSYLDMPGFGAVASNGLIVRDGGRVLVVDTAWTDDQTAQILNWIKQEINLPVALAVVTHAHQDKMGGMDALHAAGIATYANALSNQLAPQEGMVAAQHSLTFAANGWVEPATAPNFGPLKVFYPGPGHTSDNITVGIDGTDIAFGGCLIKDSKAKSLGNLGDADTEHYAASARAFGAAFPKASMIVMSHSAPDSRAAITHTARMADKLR
Experimental: (§3) The Class B beta-lactamases activities were measured in the presence of the test inhibitors in a fluorescence assay against an in-house synthesized fluorescent cephalosporin substrate FC5 (Berkel, et. al. J. Med. Chem. 2013, 56(17), 6945). The enzymes (NDM-1, IMP-1) and the substrate were diluted in 20 mM HEPES, pH 7.4, supplemented with 300 mM NaCl and 10 μM ZnSO4. In the assay, the final concentration of enzyme was 50 pM, and 100 pM for NDM-1, and IMP-1 respectively, and the final concentration of FC5 was 1.5 μM for NDM-1 and 10 μM for IMP-1. The test inhibitors/compounds were dissolved in dimethylsulfoxide (DMSO) and diluted in the assay with assay buffer (20 mM HEPES, pH 7.4, supplemented with 5% DMSO, 300 mM NaCl and 10 μM ZnSO4), resulting in a final concentration range of 0.008 μM to 25 μM. The assays were performed in 96-well microplate (flat bottom, black). The test inhibitors were incubated with the MBL enzyme for 10 min at room temperature, followed by addition the substrate and the fluorescence was recorded immediately (λex 380 nm, λem 460 nm) on a microplate reader. Using the initial velocity data plotted against the inhibitor concentration, the half-maximal inhibitory concentrations were calculated by an IC50 curve-fitting model in GraphPad Prism 9 software.

[4] = target: IMP-1 (Serratia marcescens, UniProt P52699); test: as above; assay type: biochemical; conditions: 100 pM IMP-1, 10 μM FC5, 10 min pre-incubation
Chain of IMP-1 (P52699 19-246, looked up, species assumed): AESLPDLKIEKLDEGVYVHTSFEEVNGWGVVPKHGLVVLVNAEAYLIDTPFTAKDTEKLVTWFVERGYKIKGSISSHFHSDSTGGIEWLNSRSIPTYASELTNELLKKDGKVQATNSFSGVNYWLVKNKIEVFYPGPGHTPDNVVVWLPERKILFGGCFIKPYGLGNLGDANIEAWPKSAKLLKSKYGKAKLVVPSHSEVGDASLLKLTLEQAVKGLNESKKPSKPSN
Experimental: as §3

[5] = system: Klebsiella pneumoniae ATCC BAA-2146; test: Checkerboard synergy assay in combination with Meropenem; assay type: cell-based; conditions: K. pneumoniae ATCC BAA-2146; for Fold reduction in meropenem MIC in the presence of compounds (μg/mL) 4: compound at 4 μg/mL; for Fold reduction in meropenem MIC in the presence of compounds (μg/mL) 8: compound at 8 μg/mL; for Fold reduction in meropenem MIC in the presence of compounds (μg/mL) 16: compound at 16 μg/mL; for Fold reduction in meropenem MIC in the presence of compounds (μg/mL) 32: compound at 32 μg/mL
Source text: as §1, §2

[6] = ATCCBAA2146, compound alone, Imipenem series, K. pneumoniae ATCC BAA-2146, read-out: Intrinsic MIC
[7] = ATCCBAA2146, compound alone, meropenem series, K. pneumoniae ATCC BAA-2146, read-out: Intrinsic MIC

Row | SMILES | Fold reduction in Imipenem MIC in the presence of compounds (μg/mL) 4 [1] | Fold reduction in Imipenem MIC in the presence of compounds (μg/mL) 8 [1] | Fold reduction in Imipenem MIC in the presence of compounds (μg/mL) 16 [1] | Fold reduction in Imipenem MIC in the presence of compounds (μg/mL) 32 [1] | MIC [2, 6] | MIC [2, 7] | IC50 [3] | IC50 [4] | MIC ([2]; ATCCBAA2146, antibiotic alone, read-out: MIC of meropenem against Klebsiella pneumoniae ATCC BAA-2146) | Fold reduction in meropenem MIC in the presence of compounds (μg/mL) 4 [5] | Fold reduction in meropenem MIC in the presence of compounds (μg/mL) 8 [5] | Fold reduction in meropenem MIC in the presence of compounds (μg/mL) 16 [5] | Fold reduction in meropenem MIC in the presence of compounds (μg/mL) 32 [5]
1 | CC1Cc2c([nH]c(C(=O)O)c2-c2cc(F)cc(Cl)c2)-c2ccccc21 (centres unmarked) [Example 64, 3-(3-chloro-5-fluorophenyl)-5-methyl-4,5-dihydro-1H-benzo[g]indole-2-carboxylic Acid] | 4 fold | 4 fold | 8 fold | 8 fold | > 128 µg/mL | > 128 µg/mL | 1.42 µM | 0.821 µM | – | – | – | – | –
2 | O=C(O)c1[nH]c2c(c1-c1cc(F)cc(Cl)c1)CCc1ccccc1-2 [Example 58, 3-(3-chloro-5-fluorophenyl)-4,5-dihydro-1H-benzo[g]indole-2-carboxylic Acid] | 4 fold | 8 fold | 8 fold | 16 fold | > 128 µg/mL | > 128 µg/mL | 0.009 µM | 0.869 µM | – | – | – | – | –
3 | C[C@@H](O)[C@H]1C(=O)N2C(C(=O)O)=C(S[C@@H]3CN[C@H](C(=O)N(C)C)C3)[C@H](C)[C@H]12 [meropenem, reference compound] | – | – | – | – | – | – | – | – | 128 µg/mL | – | – | – | –
4 | Cc1cc(Cl)cc(-c2c(C(=O)O)[nH]c3c2CCc2ccccc2-3)c1 [Example 57, 3-(3-chloro-5-methylphenyl)-4,5-dihydro-1H-benzo[g]indole-2-carboxylic Acid] | 4 fold | 8 fold | 8 fold | 16 fold | > 128 µg/mL | > 128 µg/mL | 1.6 µM | – | – | 4 fold | 4 fold | 8 fold | 8 fold
5 | O=C(O)c1[nH]c2c(c1-c1cc(Cl)c(Cl)c(Cl)c1)CCc1ccccc1-2 [Example 60, 3-(3,4,5-trichlorophenyl)-4,5-dihydro-1H-benzo[g]indole-2-carboxylic Acid] | 4 fold | 8 fold | 8 fold | 16 fold | > 128 µg/mL | > 128 µg/mL | – | 1.56 µM | – | 4 fold | 8 fold | 8 fold | 8 fold
6 | O=C(O)c1[nH]c2c(c1-c1cccc(Cl)c1)CCc1ccccc1-2 [Example 45, 3-(3-chlorophenyl)-4,5-dihydro-1H-benzo[g]indole-2-carboxylic Acid] | 2 fold | 4 fold | 8 fold | 8 fold | > 128 µg/mL | > 128 µg/mL | 0.132 µM | – | – | 2 fold | 4 fold | 4 fold | 8 fold
